# Test results as given in US20100160454A1, “ANTIMICROBIAL AGENTS, COMPOSITIONS AND PRODUCTS CONTAINING THE SAME, AND METHODS OF USING THE COMPOSITIONS AND PRODUCTS” (Eastman Chemical Company, priority 2008, published 2010).
# How the values were obtained:
# Assay in all cases: Microbiological challenge testing in BPW broth, graded subculture counts
# Assay type in all cases: cell-based
# [1] = test system: Aeromonas sp. Wild type
# In short: (§1)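 Strains grown in TSB with 1% dextrose at 35 °C for ≥96 h. Inoculum added to BPW broth with 1% dextrose, with or without test material (w/v), to 10^5–10^6 CFU/mL at time zero. Counts by spread-plating serial 1:10 dilutions in pH 7.2 phosphate buffer on PCA, incubated at 35 °C for ≥48 h.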
# [2] = test system: Staphylococcus aureus ATCC 25923; conditions: S. aureus
# In short: as §1
# [3] = test system: Pseudomonas aeruginosa Wild type; conditions: P. aeruginosa
# In short: as §1
# [4] = test system: Burkholderia cepacia Wild type; conditions: B. cepacia
# In short: as §1
# [5] = test system: Streptococcus mutans ATCC 35668
# In short: as §1
# [6] = test system: Bacillus subtilis Wild type
# In short: as §1
smiles,measurement,setting,value
"CCCCOCCO [EB, 2-butoxyethanol]","Aeromonas sp growth grade, 3 day",[1]; 2.5% weight/volume,"4 (1000 to 10,000 colonies countable (thus 10,000 CFU/mL to 100,000 CFU/mL))"
same,"Aeromonas sp growth grade, 14 day",[1]; 2.5% weight/volume,"4 (1000 to 10,000 colonies countable (thus 10,000 CFU/mL to 100,000 CFU/mL))"
same,"Aeromonas sp growth grade, 30 day",[1]; 2.5% weight/volume,"4 (1000 to 10,000 colonies countable (thus 10,000 CFU/mL to 100,000 CFU/mL))"
same,"Aeromonas sp growth grade, 3 day",[1]; 5.0% weight/volume,1 (0 to 51 colonies counted (thus 10 to 510 CFU/mL based on 0.1-mL sample))
same,"Aeromonas sp growth grade, 14 day",[1]; 5.0% weight/volume,0
same,"Aeromonas sp growth grade, 30 day",[1]; 5.0% weight/volume,0
same,Grade,"[2]; 2.5% (wt/vol), 3 day","4 (1000 to 10,000 colonies countable (thus 10,000 CFU/mL to 100,000 CFU/mL))"
same,Grade,"[2]; 2.5% (wt/vol), 14 day","4 (1000 to 10,000 colonies countable (thus 10,000 CFU/mL to 100,000 CFU/mL))"
same,Grade,"[2]; 2.5% (wt/vol), 30 day","4 (1000 to 10,000 colonies countable (thus 10,000 CFU/mL to 100,000 CFU/mL))"
same,Grade,"[2]; 5.0% (wt/vol), 3 day",2 (52 to 100 colonies counted (thus 520 to 1000 CFU/mL))
same,Grade,"[2]; 5.0% (wt/vol), 14 day",0
same,Grade,"[2]; 5.0% (wt/vol), 30 day",0
same,Grade,"[3]; 2.5% (wt/vol), 3 day","4 (1000 to 10,000 colonies countable (thus 10,000 CFU/mL to 100,000 CFU/mL))"
same,Grade,"[3]; 2.5% (wt/vol), 13 day","4 (1000 to 10,000 colonies countable (thus 10,000 CFU/mL to 100,000 CFU/mL))"
same,Grade,"[3]; 2.5% (wt/vol), 30 day","4 (1000 to 10,000 colonies countable (thus 10,000 CFU/mL to 100,000 CFU/mL))"
same,Grade,"[3]; 5.0% (wt/vol), 3 day",0
same,Grade,"[3]; 5.0% (wt/vol), 13 day",0
same,Grade,"[3]; 5.0% (wt/vol), 30 day",0
same,Grade,"[4]; 2.5% (wt/vol), 3 day","4 (1000 to 10,000 colonies countable (thus 10,000 CFU/mL to 100,000 CFU/mL))"
same,Grade,"[4]; 2.5% (wt/vol), 14 day","4 (1000 to 10,000 colonies countable (thus 10,000 CFU/mL to 100,000 CFU/mL))"
same,Grade,"[4]; 2.5% (wt/vol), 30 day","4 (1000 to 10,000 colonies countable (thus 10,000 CFU/mL to 100,000 CFU/mL))"
same,Grade,"[4]; 5.0% (wt/vol), 3 day",0
same,Grade,"[4]; 5.0% (wt/vol), 14 day",0
same,Grade,"[4]; 5.0% (wt/vol), 30 day",0
same,"S. mutans growth grade, 3 day",[5]; 2.5% weight/volume,"4 (1000 to 10,000 colonies countable (thus 10,000 CFU/mL to 100,000 CFU/mL))"
same,"S. mutans growth grade, 13 day",[5]; 2.5% weight/volume,"4 (1000 to 10,000 colonies countable (thus 10,000 CFU/mL to 100,000 CFU/mL))"
same,"S. mutans growth grade, 30 day",[5]; 2.5% weight/volume,"4 (1000 to 10,000 colonies countable (thus 10,000 CFU/mL to 100,000 CFU/mL))"
same,"S. mutans growth grade, 3 day",[5]; 5.0% weight/volume,0
same,"S. mutans growth grade, 13 day",[5]; 5.0% weight/volume,0
same,"S. mutans growth grade, 30 day",[5]; 5.0% weight/volume,0
same,"B. subtillis growth grade, 3 day",[6]; 2.5% weight/volume,"4 (1000 to 10,000 colonies countable (thus 10,000 CFU/mL to 100,000 CFU/mL))"
same,"B. subtillis growth grade, 14 day",[6]; 2.5% weight/volume,"4 (1000 to 10,000 colonies countable (thus 10,000 CFU/mL to 100,000 CFU/mL))"
same,"B. subtillis growth grade, 30 day",[6]; 2.5% weight/volume,"4 (1000 to 10,000 colonies countable (thus 10,000 CFU/mL to 100,000 CFU/mL))"
same,"B. subtillis growth grade, 3 day",[6]; 5.0% weight/volume,1 (0 to 51 colonies counted (thus 10 to 510 CFU/mL based on 0.1-mL sample))
same,"B. subtillis growth grade, 14 day",[6]; 5.0% weight/volume,0
same,"B. subtillis growth grade, 30 day",[6]; 5.0% weight/volume,0
